Experimental data from patent publication US20240352029A1, “CDK Inhibitors And Their Use As Pharmaceuticals” (Prelude Therapeutics Incorporated, priority 2023, published 2024).
pIC50: −log10 of the molar value.

Legend:
CDK2/Cyclin E2 = CDK2/Cyclin E2 (Homo sapiens, UniProt P24941); assay: CDK2/CyclinE2 enzymatic activity assay (TR-FRET); type: biochemical; settings: ATP 1 mM final, read-out: CDK2_E1 IC50
Experimental: CDK2/CyclinE2 Enzymatic Activity Assay
(§1) The inhibitory activity of compounds was evaluated in vitro using TR-FRET assay with white 384-well low volume microplate (Greiner Bio-One). CDK2/Cyclin E2 catalyzed phosphorylation of peptide in the presence and absence of compounds was measured and used in IC50 determination. Recombinant protein complex CDK2/Cyclin E2, expressed from insect cell, was purchased from ProQinase. Testing compounds were dissolved in DMSO at 1 mM and tested in 9-dose IC50 mode. The reaction mixture was prepared by mixing CDK2/CyclinE2 (1 nM final), ULight-4E-BP1 (50 nM final, Perkinelmer, TRF0128-D), and ATP (1 mM final) in assay buffer (20 mM of HEPES pH 7.4, 1 mM of EGTA, 0.05% BSA, 0.005% Tween 20, and 1 mM TCEP). The compound of interest in DMSO was added to each well in 3-fold serial dilution by dispenser (TECAN D300E) to make a 9.9 μL of reaction mixture. After 20 minutes preincubation at room temperature, 0.1 μL MgCl2 (10 mM final) was added to initiate the reaction. Following a 45 minutes incubation at 37° C., the reaction was stopped by addition of 2 μL of quenching buffer consisting of Lance detection buffer (Perkinelmer CR97-100C), LANCE Ultra Europium-anti-P-4E-BP1 (Perkinelmer, TRF0216-D), EDTA, and incubate at room temperature for additional 60 minutes in dark. The reaction signal was measured by Envision multimode plate reader (PerkinElmer, 2102-0010). IC50 values were determined by fitting the data to the standard 4 parameters with Hill Slope using GraphPad Prism software.

CDK4/Cyclin D1 = target: T1, CDK4/Cyclin D1 (Homo sapiens, UniProt P11802); assay: CDK4/CyclinD1 enzymatic activity assay (TR-FRET); type: biochemical; settings: ATP 2 mM final, read-out: CDK4_D1 IC50
T1 construct: purchased ProQinase; host or cells: insect cell
Experimental: CDK4/CyclinD1 Enzymatic Activity Assay
as §1, with “Bio-One). CDK4/Cyclin D1” for “Bio-One). CDK2/Cyclin E2”, “complex CDK4/Cyclin D1,” for “complex CDK2/Cyclin E2,”, “mixing CDK4/CyclinD1” for “mixing CDK2/CyclinE2”, “ULight-4E-BP1 (100” for “ULight-4E-BP1 (50”, “ATP (2” for “ATP (1”

OVCAR3 p-RB = assay: pRB ICW assay in OVCAR3 cells; type: cell-based; settings: Homo sapiens, OVCAR-3, 2 hours incubation with compound
Experimental: pRB ICW Assay in OVCAR3 Cells
OVCAR3 cells were maintained in RPMI (Corning, Catalog #: 10-040-CV) supplemented with 10% v/v FBS (Gibco, Catalog #: 26140-079), 1% v/v Penicillin Streptomycin (Gibco, Catalog #15140-122.) OVCAR3 cells grown at log phase were trypsinized, counted, and resuspended in fresh medium to reach a final density of 6.7e4 cells/ml and 75 μL of culture were dispensed into a 384-well plate (Falcon, cat #353962) using Multidrop Combi dispenser (Thermo Scientific). The next day, compounds were dispensed as a 9-point, ½ log serial dilution using a Tecan digital dispenser (D300e), and cells were incubated with compound for 2 hours in a humidified incubator at 37° C. A reference compound at a final concentration of 10 μM was used as a control for maximum inhibition. Each compound was tested in duplicates in each experiment. At the end of the incubation, 25 μl of 16% paraformaldehyde (Electron Microscopy, cat #15710) was slowly added to each well and the plate was incubated at room temperature (RT) for 30 minutes to fix cells. Cells were then permeabilized by incubating with 50 μl/well of wash buffer (1×PBS with 0.1% Triton X-100) 5×5 minutes, followed by 1 hour blocking with 30 μl/well of Odyssey blocking buffer (Li—COR, cat #927-40000), all at RT. Anti-phosphor RB antibody (Cell signaling 8516S) was diluted 1:1000 in Odyssey blocking buffer and 20 μl was added to all wells and incubated overnight in 4° C. with gently rocking. The next day, cells were washed 5×5 min with 50 μl/well of wash buffer, followed with 1 hour incubation with secondary antibody and DRAQ5 diluted in Odyssey blocking buffer (1:500 dilution for secondary antibody and 1:2000 dilution for DRAQ5), 5×5 min washes, and one last wash with water. Plates were dried in 37° C. oven for 5 min and scanned using Li—COR Odyssey CLx imaging system to acquire intensities at 700 and 800 nm channels.

T1 sequence (P11802 whole entry): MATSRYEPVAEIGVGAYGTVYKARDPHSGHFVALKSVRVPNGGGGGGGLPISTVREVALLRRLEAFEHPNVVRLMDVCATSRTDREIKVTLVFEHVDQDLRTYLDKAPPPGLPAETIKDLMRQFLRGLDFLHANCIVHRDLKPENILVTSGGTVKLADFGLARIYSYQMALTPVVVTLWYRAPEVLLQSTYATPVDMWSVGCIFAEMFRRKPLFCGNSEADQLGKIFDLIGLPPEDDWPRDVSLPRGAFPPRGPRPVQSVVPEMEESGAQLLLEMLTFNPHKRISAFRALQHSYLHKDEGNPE
T1 sequence (P24385 whole entry partner): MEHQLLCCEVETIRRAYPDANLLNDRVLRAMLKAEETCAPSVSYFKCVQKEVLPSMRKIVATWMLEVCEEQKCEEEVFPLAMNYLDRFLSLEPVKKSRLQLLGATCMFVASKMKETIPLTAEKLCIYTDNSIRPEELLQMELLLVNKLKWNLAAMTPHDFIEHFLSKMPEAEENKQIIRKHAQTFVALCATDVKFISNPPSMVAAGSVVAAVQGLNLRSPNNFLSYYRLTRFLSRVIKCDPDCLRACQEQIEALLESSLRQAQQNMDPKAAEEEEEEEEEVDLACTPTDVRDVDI

For `C[C@@H]1CN(S(=O)(=O)c2cnn(C)c2)CC[C@@H]1Nc1ncc(C(F)(F)F)c(-c2cc3c(s2)CNC3=O)n1` [Example 21, 2-(2-(((3R,4S)-3-methyl-1-((1-methyl-1H-pyrazol-4-yl)sulfonyl)piperidin-4-yl)amino)-5-(trifluoro-methyl)pyrimidin-4-yl)-5,6-dihydro-4H-thieno[2,3-c]pyrrol-4-one], the pIC50 (CDK2/Cyclin E2) was ≥ 7.00, the pIC50 (CDK4/Cyclin D1) was ≥ 7.00 and the pIC50 (OVCAR3 p-RB) was ≥ 7.00.

With `Cn1cc(S(=O)(=O)N2CCC(Nc3ncc(C(F)(F)F)c(-c4cc5c(s4)C(C)(C)NC5=O)n3)CC2)cn1` [Example 11, 6,6-dimethyl-2-(2-((1-((1-methyl-1H-pyrazol-4-yl)sulfonyl)piperidin-4-yl)amino)-5-(trifluoro-methyl)pyrimidin-4-yl)-5,6-dihydro-4H-thieno[2,3-c]pyrrol-4-one] the pIC50 (CDK2/Cyclin E2) was ≥ 7.00, the pIC50 (CDK4/Cyclin D1) was ≥ 7.00 and the pIC50 (OVCAR3 p-RB) was ≥ 7.00.

`C[C@@H]1CN(S(=O)(=O)c2cnn(C)c2)CC[C@@H]1Nc1ncc(C(F)(F)F)c(-c2cc3c(s2)C(C)(C)NC3=O)n1` [Example 7, 6,6-dimethyl-2-(2-(((3R,4S)-3-methyl-1-((1-methyl-1H-pyrazol-4-yl)sulfonyl)piperidin-4-yl)amino)-5-(trifluoromethyl)pyrimidin-4-yl)-5,6-dihydro-4H-thieno[2,3-c]pyrrol-4-one] was tested, and the pIC50 (CDK2/Cyclin E2) was ≥ 7.00, the pIC50 (CDK4/Cyclin D1) was ≥ 7.00 and the pIC50 (OVCAR3 p-RB) was ≥ 7.00.

`Cc1c(-c2nc(N[C@H]3CCN(S(C)(=O)=O)C[C@H]3C)ncc2F)sc2c1C(=O)NC2` [Example 5, 2-(5-Fluoro-2-(((3R,4S)-3-methyl-1-(methylsulfonyl)piperidin-4-yl)amino)pyrimidin-4-yl)-3-methyl-5,6-dihydro-4H-thieno[2,3-c]pyrrol-4-one] was tested, and the pIC50 (CDK2/Cyclin E2) was ≥ 7.00 and the pIC50 (OVCAR3 p-RB) was ≥ 7.00.

In the case of `Cc1c(-c2nc(N[C@H]3CCN(S(C)(=O)=O)C[C@H]3F)ncc2F)sc2c1C(=O)NC2(C)C` [Example 2, 2-(5-fluoro-2-(((3R,4S)-3-fluoro-1-(methylsulfonyl)piperidin-4-yl)amino)pyrimidin-4-yl)-3,6,6-trimethyl-5,6-dihydro-4H-thieno[2,3-c]pyrrol-4-one], the pIC50 (CDK2/Cyclin E2) was ≥ 7.00, the pIC50 (CDK4/Cyclin D1) was ≥ 7.00 and the pIC50 (OVCAR3 p-RB) was ≥ 7.00.

With `O=C1NCc2sc(-c3nc(N[C@H]4CCN(S(=O)(=O)c5cn[nH]c5)C[C@H]4F)ncc3C(F)(F)F)cc21` [Example 22, 2-(2-(((3R,4S)-1-((1H-pyrazol-4-yl)sulfonyl)-3-fluoropiperidin-4-yl)amino)-5-(trifluoromethyl)pyrimidin-4-yl)-5,6-dihydro-4H-thieno[2,3-c]pyrrol-4-one] the pIC50 (CDK2/Cyclin E2) was ≥ 7.00 and the pIC50 (OVCAR3 p-RB) was ≥ 7.00.

In the case of `Cc1c(-c2nc(NC3CCN(S(C)(=O)=O)CC3)ncc2F)sc2c1C(=O)NC2` [Example 4, 2-(5-fluoro-2-((1-(methylsulfonyl)piperidin-4-yl)amino)pyrimidin-4-yl)-3-methyl-5,6-dihydro-4H-thieno [2,3-c]pyrrol-4-one], the pIC50 (CDK2/Cyclin E2) was ≥ 7.00 and the pIC50 (OVCAR3 p-RB) was ≥ 7.00.

`CC1(C)NC(=O)c2cc(-c3nc(N[C@H]4CCN(S(C)(=O)=O)C[C@H]4F)ncc3C(F)(F)F)sc21` [Example 14, 2-(2-(((3R,4S)-3-fluoro-1-(methylsulfonyl)piperidin-4-yl)amino)-5-(trifluoro-methyl)pyrimidin-4-yl)-6,6-dimethyl-5,6-dihydro-4H-thieno[2,3-c]pyrrol-4-one] was tested, and the pIC50 (CDK2/Cyclin E2) was ≥ 7.00, the pIC50 (CDK4/Cyclin D1) was ≥ 7.00 and the pIC50 (OVCAR3 p-RB) was ≥ 7.00.

With `C[C@@H]1CN(S(=O)(=O)c2cn[nH]c2)CC[C@@H]1Nc1ncc(C(F)(F)F)c(-c2cc3c(s2)C(C)(C)NC3=O)n1` [Example 9, 2-(2-(((3R,4S)-1-((1H-pyrazol-4-yl)sulfonyl)-3-methylpiperidin-4-yl)amino)-5-(trifluoro-methyl)pyrimidin-4-yl)-6,6-dimethyl-5,6-dihydro-4H-thieno[2,3-c]pyrrol-4-one] the pIC50 (CDK2/Cyclin E2) was ≥ 7.00, the pIC50 (CDK4/Cyclin D1) was ≥ 7.00 and the pIC50 (OVCAR3 p-RB) was ≥ 7.00.

With `C[C@@H]1CN(S(=O)(=O)c2cn(C)cn2)CC[C@@H]1Nc1ncc(C(F)(F)F)c(-c2cc3c(s2)C(C)(C)NC3=O)n1` [Example 8, 6,6-dimethyl-2-(2-(((3R,4S)-3-methyl-1-((1-methyl-1H-imidazol-4-yl)sulfonyl)piperidin-4-yl)amino)-5-(trifluoromethyl)pyrimidin-4-yl)-5,6-dihydro-4H-thieno[2,3-c]pyrrol-4-one] the pIC50 (CDK2/Cyclin E2) was ≥ 7.00, the pIC50 (CDK4/Cyclin D1) was ≥ 7.00 and the pIC50 (OVCAR3 p-RB) was ≥ 7.00.

`CC1(C)NC(=O)c2cc(-c3nc(N[C@@H]4CCN(S(C)(=O)=O)C[C@H]4F)ncc3C(F)(F)F)sc21` [Example 13, 2-(2-(((3R,4R)-3-fluoro-1-(methylsulfonyl)piperidin-4-yl)amino)-5-(trifluoro-methyl)pyrimidin-4-yl)-6,6-dimethyl-5,6-dihydro-4H-thieno[2,3-c]pyrrol-4-one] was tested, and the pIC50 (CDK2/Cyclin E2) was ≥ 7.00, the pIC50 (CDK4/Cyclin D1) was ≥ 7.00 and the pIC50 (OVCAR3 p-RB) was ≥ 7.00.

In the case of `C[C@@H]1CN(S(C)(=O)=O)CC[C@@H]1Nc1ncc(C(F)(F)F)c(-c2cc3c(s2)CNC3=O)n1` [Example 18, 2-(2-(((3R,4S)-3-methyl-1-(methylsulfonyl)piperidin-4-yl)amino)-5-(trifluoro-methyl)pyrimidin-4-yl)-5,6-dihydro-4H-thieno[2,3-c]pyrrol-4-one], the pIC50 (CDK2/Cyclin E2) was ≥ 7.00 and the pIC50 (OVCAR3 p-RB) was 6.30 to 7.00.

In the case of `C[C@@H]1CN(S(C)(=O)=O)CC[C@@H]1Nc1ncc(C(F)(F)F)c(-c2cc3c(s2)C(C)(C)NC3=O)n1` [Example 6, 6,6-Dimethyl-2-(2-(((3R,4S)-3-methyl-1-(methylsulfonyl)piperidin-4-yl)amino)-5-(trifluoromethyl)pyrimidin-4-yl)-5,6-dihydro-4H-thieno[2,3-c]pyrrol-4-one], the pIC50 (CDK2/Cyclin E2) was ≥ 7.00, the pIC50 (CDK4/Cyclin D1) was ≥ 7.00 and the pIC50 (OVCAR3 p-RB) was ≥ 7.00.

`Cc1c(-c2nc(NC3CCN(S(C)(=O)=O)CC3)ncc2F)sc2c1C(=O)NC2(C)C` [Example 3, 2-(5-fluoro-2-((1-(methylsulfonyl)piperidin-4-yl)amino)pyrimidin-4-yl)-3,6,6-trimethyl-5,6-dihydro-4H-thieno[2,3-c]pyrrol-4-one] was tested, and the pIC50 (CDK2/Cyclin E2) was ≥ 7.00, the pIC50 (CDK4/Cyclin D1) was ≥ 7.00 and the pIC50 (OVCAR3 p-RB) was ≥ 7.00.

`CS(=O)(=O)N1CC[C@H](Nc2ncc(C(F)(F)F)c(-c3cc4c(s3)CNC4=O)n2)[C@H](F)C1` [Example 19, 2-(2-(((3R,4S)-3-fluoro-1-(methylsulfonyl)piperidin-4-yl)amino)-5-(trifluoro-methyl)pyrimidin-4-yl)-5,6-dihydro-4H-thieno[2,3-c]pyrrol-4-one] was tested, and the pIC50 (CDK2/Cyclin E2) was ≥ 7.00 and the pIC50 (OVCAR3 p-RB) was ≥ 7.00.
